This note sets out measurements from ChEMBL document CHEMBL1201862, “PubChem BioAssay data set” (2004).

Molecules are shown by their SMILES.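 Briefly, cells in 96-well plates were exposed to five compound concentrations for 48 h, and endpoints were estimated by linear interpolation. GI50: concentration for 50% inhibition of growth.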 Activity calls are given as the source filed them. Cut-off read from the data, not from the text of the source: active = GI50 up to about 1.1 µM and inactive = higher. A value given as a limit tells only on which side of the number the result lay.

Holding throughout (experiment): NCI tumour cell line growth inhibition, 48 h
The test system of experiment [1] is SNB-19.
Experiment [2] has as its system SN12C.
Experiment [3] concerns A549.
For experiment [4], the system named is OVCAR-5.
The test system of experiment [5] is TK-10.
The test system of experiment [6] is RPMI-8226.
In experiment [7] the test system is ACHN.
Experiment [8] concerns 786-0.
The test system of experiment [9] is SK-MEL-2.
The subject of experiment [10] is LOX IMVI.
Experiment [11] has as its system RXF 393.
In experiment [12] the test system is PC-3.
For experiment [13], the system named is MCF7.
In experiment [14] the test system is SR.
For experiment [15], the system named is M14.
Experiment [16] concerns SK-MEL-5.
In experiment [17] the test system is MDA-N.
Experiment [18] has as its system HOP-92.
Experiment [19] deals with KM12.

As for `CCOP(=O)(OCC)/C(C#N)=C/c1cccn1N(C)C`, the GI50 in experiment [1], in experiment [2], in experiment [3], in experiment [4], in experiment [5] and in experiment [6] was > 100 µM (inactive) each time. The GI50 in experiment [7], in experiment [8], in [9], in experiment [10], in experiment [11] and in experiment [12] was > 100 µM (inactive) each time. Further, the GI50 in experiment [13] was > 100 µM (inactive); in experiment [14], > 100 µM (inactive); in experiment [15], > 100 µM (inactive); in experiment [16] it was 51.6 µM (inactive); in experiment [17] it was 0.0356 µM (active); in experiment [18], > 100 µM (inactive). Besides, the GI50 in experiment [19] was > 100 µM (inactive).

`CCOC(=O)NC(OCCN(C)C)(C(F)(F)F)C(F)(F)F`: the GI50 in [1], in experiment [2], in experiment [3], in experiment [4], in [5] and in [6] was > 100 µM (inactive) throughout. For the same compound, the GI50 in experiment [7] is > 100 µM (inactive); in experiment [8], > 100 µM (inactive); in [9], > 100 µM (inactive); in experiment [10] it was > 100 µM (inactive); in experiment [11] it was 9.79 µM (inactive); in [12], > 100 µM (inactive). The GI50 in experiment [13], in [14], in experiment [15], in experiment [16], in experiment [17] and in [18] was > 100 µM (inactive) each time. In experiment [19], the GI50 was > 100 µM (inactive).

Take `OC(c1cccs1)c1cc2ccccc2s1` (stereo not given): the GI50 in experiment [1], in experiment [2], in [3], in [4], in experiment [5] and in [6] was > 10 µM (inactive) in each case. For the same compound, the GI50 in [7], in experiment [8], in experiment [9], in experiment [10], in experiment [11] and in [12] was > 10 µM (inactive) in each case. In addition, the GI50 in experiment [13], in [14], in [15], in [16], in [17] and in experiment [18] was > 10 µM (inactive) throughout. Also, the GI50 in experiment [19] is > 10 µM (inactive).

For the compound `C(=C\Nc1ccc(-c2ccccc2)cc1)/C=N/c1ccc(-c2ccccc2)cc1`, the GI50 in experiment [1] was > 100 µM (inactive); in experiment [2], > 100 µM (inactive); in experiment [3], > 100 µM (inactive); in experiment [4], > 100 µM (inactive); in experiment [5], 54.3 µM (inactive); in experiment [6], > 100 µM (inactive). The GI50 in [7], in experiment [8], in experiment [9], in experiment [10], in experiment [11] and in experiment [12] was > 100 µM (inactive) throughout. Besides, the GI50 in [13], in experiment [14], in [15], in experiment [16], in [17] and in experiment [18] was > 100 µM (inactive) throughout. For the same compound, the GI50 in experiment [19] is > 100 µM (inactive).

In the case of `COC(=O)/C=C(\CC(=O)OC)n1nnnc1[C@@H]1C[C@H](COC(c2ccccc2)(c2ccccc2)c2ccccc2)[C@H]2OC(C)(C)O[C@H]21`, the GI50 in experiment [1] was > 100 µM (inactive); in experiment [2], > 100 µM (inactive); in [3], > 100 µM (inactive); in experiment [4], > 100 µM (inactive); in experiment [5], > 100 µM (inactive); in [6] it was 11.1 µM (inactive). For the same compound, the GI50 in [7] was > 100 µM (inactive); in experiment [8], > 100 µM (inactive); in experiment [9], > 100 µM (inactive); in [10], > 100 µM (inactive); in experiment [11], 42.1 µM (inactive); in [12], > 100 µM (inactive). Also, the GI50 is 31.9 µM (inactive) in experiment [13]; 92 µM (inactive) in experiment [14]; > 100 µM (inactive) in [15]; 76.7 µM (inactive) in experiment [16]; > 100 µM (inactive) in [17]; > 100 µM (inactive) in experiment [18]. Moreover, in experiment [19], the GI50 is > 100 µM (inactive).

On to `CN(C)c1ccc(/C=C2\N=C(c3ccc([N+](=O)[O-])cc3)OC2=O)cc1`, for which the GI50 is 99.8 µM (inactive) in experiment [1]; > 100 µM (inactive) in [2]; 91 µM (inactive) in [3]; > 100 µM (inactive) in [4]; > 100 µM (inactive) in experiment [5]; 41.7 µM (inactive) in experiment [6]. In addition, the GI50 was 47.6 µM (inactive) in experiment [7]; 90.8 µM (inactive) in [8]; > 100 µM (inactive) in experiment [9]; 23.1 µM (inactive) in [10]; 21.5 µM (inactive) in experiment [11]; 56.2 µM (inactive) in [12]. Moreover, the GI50 in experiment [13] is 49.9 µM (inactive); in experiment [14] it was 38.4 µM (inactive); in [15] it was > 100 µM (inactive); in experiment [16], > 100 µM (inactive); in [17], 78.9 µM (inactive); in experiment [18] it was 27.1 µM (inactive). For the same compound, the GI50 in experiment [19] is 67.5 µM (inactive).

For `COc1ccc(CNc2cc(=O)n(C)c(=O)[nH]2)cc1`, the GI50 in experiment [1], in experiment [2], in experiment [3], in experiment [4], in experiment [5] and in [6] was > 100 µM (inactive) throughout. In addition, the GI50 in [7] was > 100 µM (inactive); in experiment [8], > 100 µM (inactive); in experiment [9], > 100 µM (inactive); in [10], > 100 µM (inactive); in experiment [11] it was 35.6 µM (inactive); in experiment [12], > 100 µM (inactive). In addition, the GI50 in experiment [13], in experiment [14], in [15], in [16], in experiment [17] and in experiment [18] was > 100 µM (inactive) each time. Also, the GI50 in [19] was > 100 µM (inactive).

Regarding `Cc1cn([C@H]2C[C@@H](N3C(=O)c4ccccc4C3=O)[C@@H](CO[Si](C)(C)C(C)(C)C)O2)c(=O)[nH]c1=O`, the GI50 in experiment [1] is 29.3 µM (inactive); in experiment [2] it was > 100 µM (inactive); in [3] it was 85.5 µM (inactive); in [4], > 100 µM (inactive); in [5], > 100 µM (inactive); in experiment [6] it was > 100 µM (inactive). The GI50 in [7] was 62.7 µM (inactive); in [8], 26.9 µM (inactive); in experiment [9] it was 46.8 µM (inactive); in experiment [10] it was > 100 µM (inactive); in experiment [11], 19.7 µM (inactive); in experiment [12], > 100 µM (inactive). In addition, the GI50 in experiment [13] is 46 µM (inactive); in experiment [14] it was 36.7 µM (inactive); in [15], > 100 µM (inactive); in experiment [16], > 100 µM (inactive); in [17], > 100 µM (inactive); in experiment [18] it was 48.6 µM (inactive). The GI50 in experiment [19] was 91.6 µM (inactive).

Take `CC(=O)C(=Cc1ccc(C=C(C(C)=O)C(C)=O)cc1)C(C)=O`: the GI50 in experiment [1] is 2.1 µM (inactive); in [2], 1.63 µM (inactive); in [3] it was 2.93 µM (inactive); in experiment [4], 2.79 µM (inactive); in [5], 2.22 µM (inactive); in [6] it was 0.282 µM (active). Also, the GI50 in experiment [7] was 1.76 µM (inactive); in [8], 2.17 µM (inactive); in experiment [9] it was 2.39 µM (inactive); in experiment [10], 0.57 µM (active); in experiment [11], 1.9 µM (inactive); in experiment [12] it was 1.9 µM (inactive). Moreover, the GI50 was 1.87 µM (inactive) in [13]; 0.238 µM (active) in [14]; 1.34 µM (inactive) in [15]; 1.9 µM (inactive) in experiment [16]; 2.22 µM (inactive) in experiment [17]; 2.12 µM (inactive) in experiment [18]. In addition, the GI50 in experiment [19] is 0.12 µM (active).

Regarding `O=c1[nH]c(=O)n(COCc2ccccc2)c2ccsc12`, the GI50 in [1] was 73.8 µM (inactive); in experiment [2] it was > 100 µM (inactive); in experiment [3], > 100 µM (inactive); in experiment [4], > 100 µM (inactive); in experiment [5], > 100 µM (inactive); in experiment [6], > 100 µM (inactive). The GI50 is > 100 µM (inactive) in [7]; > 100 µM (inactive) in experiment [8]; > 100 µM (inactive) in [9]; > 100 µM (inactive) in [10]; > 100 µM (inactive) in experiment [11]; 61.9 µM (inactive) in [12]. Besides, the GI50 was > 100 µM (inactive) in [13]; 88.7 µM (inactive) in experiment [14]; > 100 µM (inactive) in [15]; > 100 µM (inactive) in [16]; > 100 µM (inactive) in experiment [17]; 15.8 µM (inactive) in experiment [18]. The GI50 in experiment [19] is > 100 µM (inactive).
